Reference: ChEMBL document CHEMBL3879915, “Methods of inhibiting PRMT5” (2014)

Key:
PRMT5/MEP50 complex = PRMT5/MEP50 complex (Homo sapiens, UniProt O14744); experiment: Inhibition of recombinant human fetal brain FLAG-tagged PRMT5/full length human testis 6His-tagged MEP50 expressed in baculovirus infected insect Sf9 cells using human histone H4 (1 to 15 residues) as substrate preincubated for 30 mins followed by [3H]-SAM addition
[1] = Antiproliferative activity against human Z138 cells assessed as inhibition of cell viability after 5 days by Cell-Titer Glo assay; format: functional, cell-based; conditions: Z-138, 120 h
[2] = molecular target: Protein arginine N-methyltransferase 5 (Homo sapiens, UniProt O14744); experiment: Inhibition of PRMT5 in human Z138 cells assessed as decrease in di-methyl arginine levels after 96 hrs by Western blot method; format: cell-based
Protein arginine N-methyltransferase 5, sequence (O14744 whole entry): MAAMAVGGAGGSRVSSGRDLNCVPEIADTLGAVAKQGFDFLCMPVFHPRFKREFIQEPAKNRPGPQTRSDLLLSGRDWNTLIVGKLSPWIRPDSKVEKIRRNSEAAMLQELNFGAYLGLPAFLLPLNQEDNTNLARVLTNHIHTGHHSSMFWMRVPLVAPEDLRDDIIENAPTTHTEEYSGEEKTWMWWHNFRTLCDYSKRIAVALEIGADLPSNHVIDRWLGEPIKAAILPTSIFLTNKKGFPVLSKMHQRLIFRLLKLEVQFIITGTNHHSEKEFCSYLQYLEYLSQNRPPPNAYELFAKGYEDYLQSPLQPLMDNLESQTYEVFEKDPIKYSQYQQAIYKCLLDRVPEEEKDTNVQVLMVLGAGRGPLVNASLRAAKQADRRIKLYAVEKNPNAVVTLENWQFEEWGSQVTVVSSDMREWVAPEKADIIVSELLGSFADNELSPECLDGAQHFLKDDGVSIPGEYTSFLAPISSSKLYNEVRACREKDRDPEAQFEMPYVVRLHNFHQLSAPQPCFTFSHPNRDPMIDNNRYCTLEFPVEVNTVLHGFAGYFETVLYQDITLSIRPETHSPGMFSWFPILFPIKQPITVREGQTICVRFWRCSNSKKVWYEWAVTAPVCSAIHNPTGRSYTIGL

PRMT5/MEP50 complex, sequence (O14744 whole entry, the tested form may be a part): as the sequence (O14744 whole entry) above
PRMT5/MEP50 complex, sequence (Q9BQA1 whole entry, further chain, the tested form may be a part): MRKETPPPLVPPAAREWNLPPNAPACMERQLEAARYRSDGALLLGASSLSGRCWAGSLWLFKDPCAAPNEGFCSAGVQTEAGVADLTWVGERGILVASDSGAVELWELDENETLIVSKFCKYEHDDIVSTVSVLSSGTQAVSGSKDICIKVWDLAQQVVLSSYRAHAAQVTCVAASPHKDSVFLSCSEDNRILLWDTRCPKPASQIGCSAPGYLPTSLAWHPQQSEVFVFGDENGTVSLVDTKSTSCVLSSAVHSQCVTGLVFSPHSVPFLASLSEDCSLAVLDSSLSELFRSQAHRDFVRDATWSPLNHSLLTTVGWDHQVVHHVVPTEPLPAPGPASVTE

SMILES | IC50 (PRMT5/MEP50 complex) [nM] | EC50 [1] [nM] | EC50 [2] [nM]
NC(=O)c1ccc(-c2cccc(OCC(O)CN3CCc4ccccc4C3)c2)cc1 (centres undefined) | 101 to 1000 | > 20000 | 1000 to 10000
COC(=O)c1cncc(-c2cccc(OCC(O)CN3CCc4ccccc4C3)c2)c1 (centres undefined) | 1000 to 10000 | > 20000 | > 20000
CS(=O)(=O)c1cccc(-c2cccc(OCC(O)CN3CCc4ccccc4C3)c2)c1 (centres undefined) | 101 to 1000 | > 20000 | 1000 to 10000
Cc1ccc(F)c(-c2cccc(OCC(O)CN3CCc4ccccc4C3)c2)c1 (centres undefined) | 101 to 1000 | > 20000 | 1000 to 10000
CN(CC(O)CN1CCc2ccccc2C1)c1cccc(CNC2CCOCC2)c1 (centres undefined) | < 100 | > 20000 | 1000 to 10000
OC(COc1cccc(-c2cccnc2F)c1)CN1CCc2ccccc2C1 (centres undefined) | 101 to 1000 | > 20000 | 1000 to 10000
Cn1ccc2ccc(-c3cccc(OCC(O)CN4CCc5ccccc5C4)c3)nc21 (centres undefined) | < 100 | > 20000 | 101 to 1000
N#Cc1ccccc1-c1cccc(OCC(O)CN2CCc3ccccc3C2)c1 (centres undefined) | 101 to 1000 | 10000 to 40000 | 1000 to 10000
Cn1ccc(C(=O)Nc2cccc(OCC(O)CN3CCc4ccccc4C3)c2)n1 (centres undefined) | 1000 to 10000 | > 20000 | 1000 to 10000
O=C(Nc1cccc(OCC(O)CN2CCc3ccccc3C2)c1)c1cncnc1 (centres undefined) | 1000 to 10000 | > 20000 | 1000 to 10000
COC(=O)c1cccc(-c2cccc(OCC(O)CN3CCc4ccccc4C3)c2)c1 (centres undefined) | 101 to 1000 | > 20000 | > 20000
COc1ccc(Cl)cc1-c1cccc(OCC(O)CN2CCc3ccccc3C2)c1 (centres undefined) | 101 to 1000 | > 20000 | 1000 to 10000
Cn1ccc2ccc(-c3cccc(OCC(O)CN4CCc5ccccc5C4)c3)cc21 (centres undefined) | 101 to 1000 | 10000 to 40000 | 1000 to 10000
OC(COc1cccc(-c2ccc(C(F)(F)F)cc2C(F)(F)F)c1)CN1CCc2ccccc2C1 (centres undefined) | 101 to 1000 | > 20000 | 10000 to 40000
CN1CCN(c2ccc(-c3cccc(OCC(O)CN4CCc5ccccc5C4)c3)cn2)CC1 (centres undefined) | 101 to 1000 | 1000 to 10000 | 1000 to 10000
CN(C)c1ncc(-c2cccc(OCC(O)CN3CCc4ccccc4C3)c2)cn1 (centres undefined) | 101 to 1000 | 10000 to 40000 | 1000 to 10000
Cc1ccncc1-c1cccc(OCC(O)CN2CCc3ccccc3C2)c1 (centres undefined) | 101 to 10000 | 10000 to 40000 | 101 to 1000
Cn1cnc2ccc(-c3cccc(NCC(O)CN4CCc5ccccc5C4)n3)cc21 (centres undefined) | 101 to 1000 | > 20000 | 1000 to 10000
O=C1COc2ccc(-c3cccc(OCC(O)CN4CCc5ccccc5C4)c3)cc2N1 (centres undefined) | 101 to 1000 | 10000 to 40000 | 1000 to 10000
OC(COc1cccc(-c2ccc3ncn(-c4ccccc4)c3c2)c1)CN1CCc2ccccc2C1 (centres undefined) | 101 to 1000 | > 20000 | 1000 to 10000
Cn1cnc2ccc(-c3ccnc(NCC(O)CN4CCc5ccccc5C4)c3)cc21 (centres undefined) | < 100 | 1000 to 10000 | 101 to 1000
OC(COc1cccc(-c2ccc3cnoc3c2)c1)CN1CCc2ccccc2C1 (centres undefined) | 1000 to 10000 | > 20000 | 10000 to 40000
Cn1cnc2ccc(-c3cncc(NCC(O)CN4CCc5ccccc5C4)n3)cc21 (centres undefined) | 101 to 1000 | > 20000 | 101 to 1000
OC(COc1cccc(-c2ccc3ncn(Cc4ccccc4)c3c2)c1)CN1CCc2ccccc2C1 (centres undefined) | < 100 | 10000 to 40000 | 1000 to 10000
O=C(Nc1cccc(OCC(O)CN2CCc3ccccc3C2)c1)c1cnccn1 (centres undefined) | 101 to 1000 | > 20000 | 1000 to 10000
O=c1[nH]c2ccc(-c3cccc(OCC(O)CN4CCc5ccccc5C4)c3)cc2[nH]1 (centres undefined) | 101 to 1000 | 10000 to 20000 | 101 to 20000
Cn1ncc2cc(-c3cccc(OCC(O)CN4CCc5ccccc5C4)c3)ccc21 (centres undefined) | < 100 | 10000 to 40000 | 1000 to 10000

SMILES | IC50 (PRMT5/MEP50 complex) [nM] | EC50 [1] [nM] | EC50 [2] [nM]
CC(=O)Nc1cccc(-c2cccc(OCC(O)CN3CCc4ccccc4C3)c2)c1 (centres undefined) | 101 to 1000 | > 20000 | 101 to 1000
CC(C)(C)OCc1cccc(-c2cccc(OCC(O)CN3CCc4ccccc4C3)c2)c1 (centres undefined) | 101 to 1000 | > 20000 | 1000 to 10000
CN(C)c1ccc(-c2cccc(OCC(O)CN3CCc4ccccc4C3)c2)cc1 (centres undefined) | 101 to 1000 | > 20000 | 1000 to 10000
Oc1cccc(-c2cccc(OCC(O)CN3CCc4ccccc4C3)c2)c1 (centres undefined) | 101 to 1000 | 10000 to 40000 | 1000 to 10000
CS(=O)(=O)Nc1ccc(-c2cccc(OCC(O)CN3CCc4ccccc4C3)c2)cc1 (centres undefined) | 101 to 1000 | 10000 to 40000 | 1000 to 10000
N#Cc1ccc(-c2cccc(OCC(O)CN3CCc4ccccc4C3)c2)cc1 (centres undefined) | 101 to 1000 | 10000 to 40000 | 1000 to 10000
OC(COc1cccc(-c2csc3ccccc23)c1)CN1CCc2ccccc2C1 (centres undefined) | 101 to 1000 | > 20000 | 1000 to 10000
O=C(c1cccc(-c2cccc(OCC(O)CN3CCc4ccccc4C3)c2)c1)N1CCOCC1 (centres undefined) | 101 to 1000 | > 20000 | 1000 to 10000
OC(COc1cccc(-c2ccccc2C(F)(F)F)c1)CN1CCc2ccccc2C1 (centres undefined) | 101 to 1000 | > 20000 | 1000 to 10000
OC(COc1cccc(-c2ccc(C(F)(F)F)cc2Cl)c1)CN1CCc2ccccc2C1 (centres undefined) | 101 to 1000 | > 20000 | 10000 to 40000
Cn1cnc2ccc(-c3ccnc(NCC(O)CN4CCc5ccccc5C4)n3)cc21 (centres undefined) | 101 to 1000 | 1000 to 10000 | 101 to 1000
Cn1nccc1C(=O)Nc1cccc(OCC(O)CN2CCc3ccccc3C2)c1 (centres undefined) | 1000 to 10000 | > 20000 | 1000 to 10000
Cn1cnc2ccc(-c3cccc(NCC(O)CN4CCc5ccccc5C4)c3)cc21 (centres undefined) | < 100 | 1000 to 10000 | 101 to 1000
Cn1cnc2ccc(-c3cccc(OC[C@@H](O)CN4CCc5ccccc5C4)c3)cc21 | 101 to 1000 | 1000 to 10000 | 1000 to 10000
OC(COc1cccc(-c2ccc3ncn(C4CCOCC4)c3c2)c1)CN1CCc2ccccc2C1 (centres undefined) | 101 to 1000 | 1000 to 10000 | 101 to 1000
Cn1ccc2cnc(-c3cccc(OCC(O)CN4CCc5ccccc5C4)c3)nc21 (centres undefined) | < 100 | > 20000 | 101 to 1000
Cn1cnc2ccc(-c3cccc(OC[C@H](O)CN4CCc5ccccc5C4)c3)cc21 | < 100 | 1000 to 10000 | 101 to 1000
Cn1ncc2ccc(-c3cc(COCC(O)CN4CCc5ccccc5C4)on3)cc21 (centres undefined) | 101 to 1000 | > 20000 | 1000 to 10000
COc1ccc(-c2cccc(OCC(O)CN3CCc4ccccc4C3)c2)cc1Cl (centres undefined) | 101 to 1000 | > 20000 | 10000 to 40000
OC(COc1cccc(-c2ccc3[nH]ncc3c2)c1)CN1CCc2ccccc2C1 (centres undefined) | 101 to 1000 | > 20000 | 1000 to 10000
O=C1NCc2ccc(-c3cccc(OCC(O)CN4CCc5ccccc5C4)c3)cc21 (centres undefined) | 101 to 1000 | 10000 to 40000 | 1000 to 10000
CC(=O)c1ccc(-c2cccc(OCC(O)CN3CCc4ccccc4C3)c2)cc1 (centres undefined) | 101 to 1000 | > 20000 | 1000 to 10000
NC(=O)c1cccc(-c2cccc(OCC(O)CN3CCc4ccccc4C3)c2)c1 (centres undefined) | 101 to 1000 | > 20000 | 1000 to 10000
OC(COc1cccc(-c2ccccc2Oc2ccccc2)c1)CN1CCc2ccccc2C1 (centres undefined) | 101 to 1000 | > 20000 | 1000 to 10000
N#Cc1cccc(-c2cccc(OCC(O)CN3CCc4ccccc4C3)c2)c1 (centres undefined) | 101 to 1000 | > 20000 | 1000 to 10000
CS(=O)(=O)c1ccccc1-c1cccc(OCC(O)CN2CCc3ccccc3C2)c1 (centres undefined) | 101 to 1000 | > 20000 | 1000 to 10000
